# Non-standard residues stand in square brackets, D forms with d. Residues, ends and D or L forms follow the SMILES beside them. *: point of attachment. Boc = CC(C)(C)OC(=O)*; Aib = CC(C)(N)C(=O)O; Bn = c1ccc(C*)cc1
# Biological target: γ-secretase (Homo sapiens, UniProt P49768)
# Test: cell-free γ-secretase assay using detergent-solubilized membranes from HeLa cells and a recombinant APP-based substrate
# Format: biochemical
# Set-up: detergent-solubilized membranes from HeLa cells; endogenous in cells; host or cells: HeLa cells (detergent-solubilized membranes)
# Conditions: 50% inhibition of Aβ40 production; at least three independent experiments; read-out: Cell-free Assay IC50
# Description: Compounds were tested in a γ-secretase assay using detergent-solubilized membranes from HeLa cells and a recombinant APP-based substrate (Table 2, 18). […] Moreover, the γ-secretase inhibition appears to show dependence on length.
row,Structure (SMILES),IC50 [nM]
1,"CC[C@@H](C)[C@@H](NC(=O)[C@H](NC(=O)[C@H](NC(=O)C(C)(C)NC(=O)CNC(=O)[C@H](NC(=O)C(C)(C)NC(=O)[C@@H](CC(C)C)NC(=O)OC(C)(C)C)C(C)C)C(C)C)C(C)C)C(=O)NC(C)(C)C(=O)N[C@@H](C(=O)N[C@@H](C(=O)NC(C)(C)C(=O)N[C@@H](C(=O)N[C@@H](C(=O)NC(C)(C)C(=O)OC)[C@H](C)CC)C(C)C)C(C)C)[C@H](C)OCc1ccccc1 [SEQ ID NO:20 D-peptide, Boc-Leu-Aib-Val-Gly-Aib-Val-Val-Ile-Aib-Thr(OBz)-Val-Aib-Val-Ile-Aib-OMe] (Boc-[dL][Aib][dV]G[Aib][dV][dV][dI][Aib][dT](Bn)[dV][Aib][dV][dI][Aib]-OMe)",16 ± 7
2,"CC[C@@H](C)[C@@H](NC(=O)[C@H](NC(=O)[C@H](NC(=O)C(C)(C)NC(=O)CNC(=O)[C@H](NC(=O)C(C)(C)NC(=O)OC(C)(C)C)C(C)C)C(C)C)C(C)C)C(=O)NC(C)(C)C(=O)N[C@@H](C(=O)N[C@@H](C(=O)NC(C)(C)C(=O)N[C@@H](C(=O)N[C@@H](C(=O)NC(C)(C)C(=O)OC)[C@H](C)CC)C(C)C)C(C)C)[C@H](C)OCc1ccccc1 [SEQ ID NO:19 D-peptide, Boc-Aib-Val-Gly-Aib-Val-Val-Ile-Aib-Thr(OBz)-Val-Aib-Val-Ile-Aib-OMe] (Boc-[Aib][dV]G[Aib][dV][dV][dI][Aib][dT](Bn)[dV][Aib][dV][dI][Aib]-OMe)",14 ± 10
3,"CC[C@@H](C)[C@@H](NC(=O)[C@H](NC(=O)[C@H](NC(=O)C(C)(C)NC(=O)CNC(=O)[C@H](NC(=O)C(C)(C)NC(=O)[C@@H](CC(C)C)NC(=O)CNC(=O)OC(C)(C)C)C(C)C)C(C)C)C(C)C)C(=O)NC(C)(C)C(=O)N[C@@H](C(=O)N[C@@H](C(=O)NC(C)(C)C(=O)N[C@@H](C(=O)N[C@@H](C(=O)NC(C)(C)C(=O)OC)[C@H](C)CC)C(C)C)C(C)C)[C@H](C)OCc1ccccc1 [SEQ ID NO:21 D-peptide, Boc-Gly-Leu-Aib-Val-Gly-Aib-Val-Val-Ile-Aib-Thr(OBz)-Val-Aib-Val-Ile-Aib-OMe] (Boc-G[dL][Aib][dV]G[Aib][dV][dV][dI][Aib][dT](Bn)[dV][Aib][dV][dI][Aib]-OMe)",26 ± 21
4,"CC[C@H](C)[C@H](NC(=O)[C@@H](NC(=O)[C@@H](NC(=O)C(C)(C)NC(=O)CNC(=O)[C@@H](NC(=O)C(C)(C)NC(=O)OC(C)(C)C)C(C)C)C(C)C)C(C)C)C(=O)NC(C)(C)C(=O)N[C@H](C(=O)N[C@H](C(=O)NC(C)(C)C(=O)N[C@H](C(=O)N[C@H](C(=O)NC(C)(C)C(=O)OC)[C@@H](C)CC)C(C)C)C(C)C)[C@@H](C)OCc1ccccc1 [SEQ ID NO:19 L-peptide, Boc-Aib-Val-Gly-Aib-Val-Val-Ile-Aib-Thr(OBz)-Val-Aib-Val-Ile-Aib-OMe] (Boc-[Aib]VG[Aib]VVI[Aib]T(Bn)V[Aib]VI[Aib]-OMe)",910 ± 170
5,"CC[C@H](C)[C@H](NC(=O)[C@@H](NC(=O)[C@@H](NC(=O)C(C)(C)NC(=O)CNC(=O)[C@@H](NC(=O)C(C)(C)NC(=O)[C@H](CC(C)C)NC(=O)OC(C)(C)C)C(C)C)C(C)C)C(C)C)C(=O)NC(C)(C)C(=O)N[C@H](C(=O)N[C@H](C(=O)NC(C)(C)C(=O)N[C@H](C(=O)N[C@H](C(=O)NC(C)(C)C(=O)OC)[C@@H](C)CC)C(C)C)C(C)C)[C@@H](C)OCc1ccccc1 [SEQ ID NO:20 L-peptide, Boc-Leu-Aib-Val-Gly-Aib-Val-Val-Ile-Aib-Thr(OBz)-Val-Aib-Val-Ile-Aib-OMe] (Boc-L[Aib]VG[Aib]VVI[Aib]T(Bn)V[Aib]VI[Aib]-OMe)",4700
6,"CC[C@H](C)[C@H](NC(=O)[C@@H](NC(=O)[C@@H](NC(=O)C(C)(C)NC(=O)CNC(=O)[C@@H](NC(=O)C(C)(C)NC(=O)[C@H](CC(C)C)NC(=O)CNC(=O)OC(C)(C)C)C(C)C)C(C)C)C(C)C)C(=O)NC(C)(C)C(=O)N[C@H](C(=O)N[C@H](C(=O)NC(C)(C)C(=O)N[C@H](C(=O)N[C@H](C(=O)NC(C)(C)C(=O)OC)[C@@H](C)CC)C(C)C)C(C)C)[C@@H](C)OCc1ccccc1 [SEQ ID NO:21 L-peptide, Boc-Gly-Leu-Aib-Val-Gly-Aib-Val-Val-Ile-Aib-Thr(OBz)-Val-Aib-Val-Ile-Aib-OMe] (Boc-GL[Aib]VG[Aib]VVI[Aib]T(Bn)V[Aib]VI[Aib]-OMe)",11000
7,"CC[C@@H](C)[C@@H](NC(=O)[C@H](NC(=O)[C@H](NC(=O)C(C)(C)NC(=O)CNC(=O)OC(C)(C)C)C(C)C)C(C)C)C(=O)NC(C)(C)C(=O)N[C@@H](C(=O)N[C@@H](C(=O)NC(C)(C)C(=O)N[C@@H](C(=O)N[C@@H](C(=O)NC(C)(C)C(=O)OC)[C@H](C)CC)C(C)C)C(C)C)[C@H](C)OCc1ccccc1 [SEQ ID NO:17 D-peptide, Boc-Gly-Aib-Val-Val-Ile-Aib-Thr(OBz)-Val-Aib-Val-Ile-Aib-OMe] (Boc-G[Aib][dV][dV][dI][Aib][dT](Bn)[dV][Aib][dV][dI][Aib]-OMe)",12 ± 4
8,"CC[C@H](C)[C@H](NC(=O)[C@@H](NC(=O)[C@@H](NC(=O)C(C)(C)NC(=O)OC(C)(C)C)C(C)C)C(C)C)C(=O)NC(C)(C)C(=O)N[C@H](C(=O)N[C@H](C(=O)NC(C)(C)C(=O)N[C@H](C(=O)N[C@H](C(=O)NC(C)(C)C(=O)OC)[C@@H](C)CC)C(C)C)C(C)C)[C@@H](C)OCc1ccccc1 [SEQ ID NO:16 L-peptide, Boc-Aib-Val-Val-Ile-Aib-Thr(OBz)-Val-Aib-Val-Ile-Aib-OMe] (Boc-[Aib]VVI[Aib]T(Bn)V[Aib]VI[Aib]-OMe)",3100
9,"CC[C@H](C)[C@H](NC(=O)[C@@H](NC(=O)[C@@H](NC(=O)C(C)(C)NC(=O)CNC(=O)OC(C)(C)C)C(C)C)C(C)C)C(=O)NC(C)(C)C(=O)N[C@H](C(=O)N[C@H](C(=O)NC(C)(C)C(=O)N[C@H](C(=O)N[C@H](C(=O)NC(C)(C)C(=O)OC)[C@@H](C)CC)C(C)C)C(C)C)[C@@H](C)OCc1ccccc1 [SEQ ID NO:17 L-peptide, Boc-Gly-Aib-Val-Val-Ile-Aib-Thr(OBz)-Val-Aib-Val-Ile-Aib-OMe] (Boc-G[Aib]VVI[Aib]T(Bn)V[Aib]VI[Aib]-OMe)",360

# Same assay, conditions: L-series, cell-free assay
row,Structure (SMILES),increase in potency over the reference L-decapeptide having SEQ ID NO:10 [fold]
1,"CC[C@H](C)[C@H](NC(=O)[C@@H](NC(=O)[C@@H](NC(=O)C(C)(C)NC(=O)CNC(=O)OC(C)(C)C)C(C)C)C(C)C)C(=O)NC(C)(C)C(=O)N[C@H](C(=O)N[C@H](C(=O)NC(C)(C)C(=O)N[C@H](C(=O)N[C@H](C(=O)NC(C)(C)C(=O)OC)[C@@H](C)CC)C(C)C)C(C)C)[C@@H](C)OCc1ccccc1 [SEQ ID NO:17 L-peptide, Boc-Gly-Aib-Val-Val-Ile-Aib-Thr(OBz)-Val-Aib-Val-Ile-Aib-OMe] (Boc-G[Aib]VVI[Aib]T(Bn)V[Aib]VI[Aib]-OMe)",~100

# Source: US7501397B2, “Helical peptidomimetics with enhanced activity” (The Brigham and Women's Hospital, Inc., priority 2004, dated 2009)
